The values that follow come from US20230277527A1, “ROR-GAMMA MODULATORS” (Escalier Biosciences B.V., priority 2016, published 2023).

RORγt, sequence (P51449 269-508): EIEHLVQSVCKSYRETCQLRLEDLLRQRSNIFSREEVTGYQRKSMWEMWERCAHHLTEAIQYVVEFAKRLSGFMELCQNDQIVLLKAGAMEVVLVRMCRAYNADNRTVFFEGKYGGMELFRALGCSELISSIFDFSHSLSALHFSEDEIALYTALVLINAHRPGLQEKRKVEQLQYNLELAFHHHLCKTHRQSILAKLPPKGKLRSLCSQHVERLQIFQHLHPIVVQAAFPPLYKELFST

The first assay deals with IMQ-induced psoriasis.
Test: not given
Particulars: topical pre-treatment daily for 5 days, 4 hours before IMQ.
For the molecule `C[C@H]1C[C@H]2[C@@H]3CCC4=CC(=O)C=C[C@]4(C)[C@@]3(F)[C@@H](O)C[C@]2(C)[C@@]1(O)C(=O)CCl` [clobetasol], the “ear and back skin thickness” value is “significantly decreased”; the histopathology scoring result is on record as “significantly decreased”; the total psoriasis score entry is listed as “significantly decreased”.

Another assay has as its target RORγt (Homo sapiens (Human), UniProt P51449). The assay can be described thus: RORγt Gal fusion assay (Gal4 ligand binding reporter assay). The assay is classed as cell-based. Particulars: RORγt inverse agonists. The procedure:
Human RORγ ligand binding assay was performed in 96-well format. The N-terminal DNA binding domains (DBD) of the native RORγ and RORγt receptors have been substituted with that of the yeast GAL4-DBD and RORγ is expressed constitutively in the cell line. Both agonist and inverse agonist activity can be detected. 10 mM compound stocks were diluted serially 1:3 with DMSO and further diluted with provided media to generate 10 titration points from 60 μM to 3 nM. These treatment conditions were added to the plates as 2× media in 100 μL volume. Each plate includes a positive control with 10 titration points as well as 6 negative control wells with vehicle only. Reporter cells were rapidly thawed and added to the plates in 100 μL volume. The plates were incubated for 24 hrs in a 37° C. humidified 5% CO2 incubator. Media was removed before the addition of room temperature Detection Substrate. After 5 minute incubation, the luminescence was quantified on a luminescence plate reader.
(Reporter assays use an easily measured gene product as a stand-in for the process of interest.)
`CC(C)OC(=O)CC1CN(Cc2ccc(-c3ccc(C(O)(C(F)(F)F)C(F)(F)F)cc3)cc2)CCN1Cc1ccncc1` (stereo not shown) [Compound 30, isopropyl 2-(4-((4′-(1,1,1,3,3,3-hexafluoro-2-hydroxypropan-2-yl)-[1,1′-biphenyl]-4-yl)methyl)-1-(pyridin-4-ylmethyl)piperazin-2-yl)acetate] came in with an IC50 of less than 1000 nM.

As to `CCOC(=O)C[C@@H]1CN(Cc2ccc(-c3ccc(C(O)(C(F)(F)F)C(F)(F)F)cc3)cc2)CCN1Cc1ccncc1` [Compound 49, ethyl (R)-2-(4-((4′-(1,1,1,3,3,3-hexafluoro-2-hydroxypropan-2-yl)-[1,1′-biphenyl]-4-yl)methyl)-1-(pyridin-4-ylmethyl)piperazin-2-yl)acetate], the IC50 is less than 1000 nM.

The molecule `O=C(CC1CN(Cc2ccc(-c3ccc(C(O)(C(F)(F)F)C(F)(F)F)cc3)cc2)CCN1Cc1ccncc1)OCCO` (stereo not shown) [Compound 31, 2-hydroxyethyl 2-(4-((4′-(1,1,1,3,3,3-hexafluoro-2-hydroxypropan-2-yl)-[1,1′-biphenyl]-4-yl)methyl)-1-(pyridin-4-ylmethyl)piperazin-2-yl)acetate] displayed an IC50 of less than 1000 nM.

The molecule `CCOC(=O)CC1CN(Cc2ccc(-c3ccc(C(O)(C(F)(F)F)C(F)(F)F)cc3)c(C)c2)CCN1Cc1ccncc1` (stereo not shown) [Compound 35, ethyl 2-(4-((4′-(1,1,1,3,3,3-hexafluoro-2-hydroxypropan-2-yl)-2-methyl-[1,1′-biphenyl]-4-yl)methyl)-1-(pyridin-4-ylmethyl)piperazin-2-yl)acetate] registered an IC50 of less than 1000 nM.

With `CCOCCOC(=O)CC1CN(Cc2ccc(-c3ccc(C(O)(C(F)(F)F)C(F)(F)F)cc3)cc2)CCN1Cc1ccncc1` (stereo not shown) [Compound 32, 2-ethoxyethyl 2-(4-((4′-(1,1,1,3,3,3-hexafluoro-2-hydroxypropan-2-yl)-[1,1′-biphenyl]-4-yl)methyl)-1-(pyridin-4-ylmethyl)piperazin-2-yl)acetate], the IC50 is less than 1000 nM.

In turn, `CCOCCOC(=O)C[C@H]1CN(Cc2ccc(-c3ccc(C(O)(C(F)(F)F)C(F)(F)F)cc3)cc2)CCN1Cc1ccncc1` [Compound 51, 2-ethoxyethyl (S)-2-(4-((4′-(1,1,1,3,3,3-hexafluoro-2-hydroxypropan-2-yl)-[1,1′-biphenyl]-4-yl)methyl)-1-(pyridin-4-ylmethyl)piperazin-2-yl)acetate] registered an IC50 of less than 1000 nM.

With `CCOC(=O)CC1CN(Cc2ccc(-c3ccc(C(O)(C(F)(F)F)C(F)(F)F)cc3)cc2)CCN1Cc1ccncc1` (stereo not shown) [Compound 18, ethyl 2-(4-((4′-(1,1,1,3,3,3-hexafluoro-2-hydroxypropan-2-yl)-[1,1′-biphenyl]-4-yl)methyl)-1-(pyridin-4-ylmethyl)piperazin-2-yl)acetate], the IC50 is less than 1000 nM.

On to `O=C(O)C1CN(Cc2ccc(-c3ccc(C(O)(C(F)(F)F)C(F)(F)F)cc3)cc2)CCN1Cc1ccncc1` (stereo not shown) [Compound 20, 4-((4′-(1,1,1,3,3,3-hexafluoro-2-hydroxypropan-2-yl)-[1,1′-biphenyl]-4-yl)methyl)-1-(pyridin-4-ylmethyl)piperazine-2-carboxylic acid], for which the IC50 was greater than 10000 nM.

`CCOC(=O)C1CN(Cc2ccncc2)CCN1Cc1ccc(-c2ccc(C(O)(C(F)(F)F)C(F)(F)F)cc2)cc1` (stereo not shown) [Compound 9, ethyl 1-((4′-(1,1,1,3,3,3-hexafluoro-2-hydroxypropan-2-yl)-[1,1′-biphenyl]-4-yl)methyl)-4-(pyridin-4-ylmethyl)piperazine-2-carboxylate] yielded an IC50 of less than 1000 nM.

Take `O=C(O)CC1CN(Cc2ccc(-c3ccc(C(O)(C(F)(F)F)C(F)(F)F)cc3)cc2)CCN1Cc1ccncc1` (stereo not shown) [Compound 21, 2-(4-((4′-(1,1,1,3,3,3-hexafluoro-2-hydroxypropan-2-yl)-[1,1′-biphenyl]-4-yl)methyl)-1-(pyridin-4-ylmethyl)piperazin-2-yl)acetic acid]: the IC50 is greater than 10000 nM.

`CC(C)NC(=O)C1CN(Cc2ccncc2)CCN1Cc1ccc(-c2ccc(C(O)(C(F)(F)F)C(F)(F)F)cc2)cc1` (stereo not shown) [Compound 24, 1-((4′-(1,1,1,3,3,3-hexafluoro-2-hydroxypropan-2-yl)-[1,1′-biphenyl]-4-yl)methyl)-N-isopropyl-4-(pyridin-4-ylmethyl)piperazine-2-carboxamide] displayed an IC50 greater than 10000 nM.

The molecule `CCOC(=O)C1CN(Cc2ccc(-c3ccc(C(O)(C(F)(F)F)C(F)(F)F)cc3)cc2)CCN1Cc1ccncc1` (stereo not shown) [Compound 17, ethyl 4-((4′-(1,1,1,3,3,3-hexafluoro-2-hydroxypropan-2-yl)-[1,1′-biphenyl]-4-yl)methyl)-1-(pyridin-4-ylmethyl)piperazine-2-carboxylate] registered an IC50 of less than 1000 nM.

Turning to `CCOC(=O)CC1CN(Cc2ccncc2)CCN1Cc1ccc(-c2ccc(C(O)(C(F)(F)F)C(F)(F)F)cc2)cc1` (stereo not shown) [Compound 10, ethyl 2-(1-((4′-(1,1,1,3,3,3-hexafluoro-2-hydroxypropan-2-yl)-[1,1′-biphenyl]-4-yl)methyl)-4-(pyridin-4-ylmethyl)piperazin-2-yl)acetate], the IC50 was less than 1000 nM.

By IC50 is commonly meant the concentration that inhibits the measured activity by half. Lower therefore signals higher potency.
